Patent publication US9102701B2, “17-hydroxy-17-pentafluoroethyl-estra-4,9(10)-diene-11-ethynylphenyl derivatives, methods for the production thereof and use thereof for treating diseases” (Bayer Intellectual Property GmbH, priority 2009, dated 2015)
pIC50: −log10 of the molar value.

Assays:
[1] = biological target: T1, human progesterone receptor A (Homo sapiens, UniProt P06401); assay: Progesterone receptor-antagonistic action in stably transfected SK-N-MC cells, PR-A, MMTV-LUC reporter; assay type: cell-based; details: read-out: IC50 PR-A
T1 construct: expressed in transfected cells; host or cells: SK-N-MC human neuroblastoma cells, stably transfected with pRChPR-A-neo and pMMTV-LUC
T1 sequence (P06401 1-769 isoform P06401-2): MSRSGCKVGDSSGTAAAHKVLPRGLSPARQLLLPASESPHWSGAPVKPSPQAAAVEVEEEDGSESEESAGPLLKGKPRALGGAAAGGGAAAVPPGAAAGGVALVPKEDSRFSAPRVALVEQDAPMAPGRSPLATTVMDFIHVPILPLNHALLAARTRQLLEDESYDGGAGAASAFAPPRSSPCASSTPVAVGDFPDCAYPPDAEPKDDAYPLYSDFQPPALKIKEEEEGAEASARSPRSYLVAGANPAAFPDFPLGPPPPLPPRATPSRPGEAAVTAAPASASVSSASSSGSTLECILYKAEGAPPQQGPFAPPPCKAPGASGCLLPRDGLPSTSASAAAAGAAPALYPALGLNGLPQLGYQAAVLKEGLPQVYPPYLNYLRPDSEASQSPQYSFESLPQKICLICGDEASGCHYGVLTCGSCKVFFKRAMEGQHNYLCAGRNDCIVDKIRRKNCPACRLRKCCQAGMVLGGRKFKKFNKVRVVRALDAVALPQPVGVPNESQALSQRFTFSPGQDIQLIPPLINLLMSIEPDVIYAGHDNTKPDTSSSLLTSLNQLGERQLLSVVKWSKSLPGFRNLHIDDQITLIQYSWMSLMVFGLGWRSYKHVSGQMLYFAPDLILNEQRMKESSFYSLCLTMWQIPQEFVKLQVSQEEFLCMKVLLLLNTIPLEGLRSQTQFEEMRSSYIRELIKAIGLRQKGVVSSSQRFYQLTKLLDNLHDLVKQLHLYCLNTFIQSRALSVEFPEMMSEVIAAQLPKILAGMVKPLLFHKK
Experimental: (§1) Determination of Progesterone Receptor-Antagonistic Action in Stable Transfectants of Human Neuroblastoma Cells (SK-N-MC Cells) with the Human Progesterone a or Progesterone B Receptor and an MN-LUC Reporter Construct
(§2) SK-N-MC cells (human neuroblastoma cells) which have been stably transfected with plasmids expressing the human progesterone receptor B (pRChPR-B-neo) or the human progesterone receptor A (pRChPR-A-neo) and a reporter construct (pMMTV-LUC) were incubated for 24 hours either in the absence (negative control) or in the presence of ascending amounts of the particular test compound (0.01 nmol/l, 0.1 nmol/l, 1 nmol/l, 10 nmol/l, 100 nmol/l and […]), in order to determine the agonistic efficacy. As a positive control of the reporter gene induction, the cells were treated with the synthetic gestagen promegestone (0.01 nmol/l, 0.1 nmol/l, 1 nmol/l, 10 nmol/l, 100 nmol/l and […]). To determine the antagonistic activity, the cells were treated with 0.1 nmol/l promegestone and additionally with ascending amounts of the particular test compound (0.01 nmol/l, 0.1 nmol/l, 1 nmol/l, 10 nmol/l, 100 nmol/l and […]). The activity of the reporter gene LUC (LUC=luciferase) was determined in the cell lysates and measured as RLU (relative light units). All measurements are reported as % efficacy and as EC50 and IC50 concentrations.

[2] = biological target: T2, human progesterone receptor B (Homo sapiens, UniProt P06401); assay: Progesterone receptor-antagonistic action in stably transfected SK-N-MC cells, PR-B, MMTV-LUC reporter; assay type: cell-based; details: read-out: IC50 PR-B
T2 construct: expressed in transfected cells; host or cells: SK-N-MC human neuroblastoma cells, stably transfected with pRChPR-B-neo and pMMTV-LUC
T2 sequence (P06401 1-933): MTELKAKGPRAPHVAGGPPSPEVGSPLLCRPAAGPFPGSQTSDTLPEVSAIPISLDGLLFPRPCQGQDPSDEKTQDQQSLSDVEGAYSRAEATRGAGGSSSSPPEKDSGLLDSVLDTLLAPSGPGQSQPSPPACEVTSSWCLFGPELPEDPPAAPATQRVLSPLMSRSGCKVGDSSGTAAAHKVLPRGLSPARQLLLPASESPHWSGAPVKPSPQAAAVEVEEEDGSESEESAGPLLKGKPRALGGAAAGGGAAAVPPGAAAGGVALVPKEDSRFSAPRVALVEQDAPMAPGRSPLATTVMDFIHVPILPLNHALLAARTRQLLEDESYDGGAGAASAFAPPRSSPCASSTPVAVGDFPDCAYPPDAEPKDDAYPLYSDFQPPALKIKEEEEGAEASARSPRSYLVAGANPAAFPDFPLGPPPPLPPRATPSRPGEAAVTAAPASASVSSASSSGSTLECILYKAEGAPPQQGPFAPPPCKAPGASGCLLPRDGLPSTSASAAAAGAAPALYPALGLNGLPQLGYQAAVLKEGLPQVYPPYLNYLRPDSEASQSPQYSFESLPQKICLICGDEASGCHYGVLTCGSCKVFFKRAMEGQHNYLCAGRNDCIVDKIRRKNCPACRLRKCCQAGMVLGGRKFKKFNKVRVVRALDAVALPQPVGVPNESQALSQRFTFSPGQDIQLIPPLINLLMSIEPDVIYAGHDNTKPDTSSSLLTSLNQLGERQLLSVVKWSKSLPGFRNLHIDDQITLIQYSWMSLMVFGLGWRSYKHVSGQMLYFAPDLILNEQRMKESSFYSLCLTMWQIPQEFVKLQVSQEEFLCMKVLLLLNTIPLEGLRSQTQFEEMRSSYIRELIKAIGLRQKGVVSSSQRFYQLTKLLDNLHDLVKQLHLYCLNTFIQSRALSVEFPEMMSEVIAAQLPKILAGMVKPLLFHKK
Experimental: as §1, §2

| SMILES | pIC50 [1] | pIC50 [2] |
| --- | --- | --- |
| CC(C)(O)C#Cc1ccc([C@H]2C[C@@]3(C)[C@@H](CC[C@@]3(O)C(F)(F)C(F)(F)F)[C@@H]3CCC4=CC(=O)CCC4=C32)cc1 [Example 21, (8S,11R,13S,14S,17S)-17-hydroxy-11-[4-(3-hydroxy-3-methylbut-1-ynyl)phenyl]-13-methyl-17-pentafluoroethyl-1,2,6,7,8,11,12,13,14,15,16,17-dodecahydrocyclopenta[a]phenanthren-3-one] | 9.44 | 9.00 |
| C#Cc1ccc([C@H]2C[C@@]3(C)C(CC[C@@]3(O)C(F)(F)C(F)(F)F)C3CCC4=CC(=O)CCC4=C32)cc1 (stereo partly drawn) [Example 22, (8S,11R,13S,14S,17S)-1′-(4-ethynylphenyl)-17-hydroxy-13-methyl-17-pentafluoroethyl-1,2,6,7,8,11,12,13,14,15,16,17-dodecahydrocyclopenta[a]phenanthren-3-one] | 10.85 | 10.85 |
| C[C@]12C[C@H](c3ccc(C#CCN=[N+]=[N-])cc3)C3=C4CCC(=O)C=C4CC[C@H]3[C@@H]1CC[C@@]2(O)C(F)(F)C(F)(F)F [Example 23, (8S,11R,13S,14S,17S)-11-[4-(3-azidoprop-1-yn-1-yl)phenyl]-17-hydroxy-13-methyl-17-pentafluoroethyl-1,2,6,7,8,11,12,13,14,15,16,17-dodecahydrocyclopenta[a]phenanthren-3-one] | 9.70 | 9.52 |
| C[C@]12C[C@H](c3ccc(C#C/C=N\OCc4ccccc4)cc3)C3=C4CCC(=O)C=C4CCC3C1CC[C@@]2(O)C(F)(F)C(F)(F)F (stereo partly drawn) [Example 24B, (Z)-[4-((8S,11R,13S,14S,17S)-17-hydroxy-13-methyl-3-oxo-17-pentafluoroethyl-2,3,6,7,8,11,12,13,14,15,16,17-dodecahydro-1H-cyclopenta[a]phenanthren-1′-yl)phenyl]propynal O-benzyl oxime] | 10.00 | 10.00 |
| CCO/N=C\C#Cc1ccc([C@H]2C[C@@]3(C)C(CC[C@@]3(O)C(F)(F)C(F)(F)F)C3CCC4=CC(=O)CCC4=C32)cc1 (stereo partly drawn) [Example 25B, (Z)-[4-((8S,11R,13S,14S,17S)-17-hydroxy-13-methyl-3-oxo-17-pentafluoroethyl-2,3,6,7,8,11,12,13,14,15,16,17-dodecahydro-1H-cyclopenta[a]phenanthren-1′-yl)phenyl]propynal O-ethyl oxime] | 10.05 | 10.05 |
| Cc1noc(C)c1NC(=O)NCC#Cc1ccc([C@H]2C[C@@]3(C)C(CC[C@@]3(O)C(F)(F)C(F)(F)F)C3CCC4=CC(=O)CCC4=C32)cc1 (stereo partly drawn) [Example 28, 1-(3,5-dimethylisoxazol-4-yl)-3-{3-[4-((8S,11R,13S,14S,17S)-17-hydroxy-13-methyl-3-oxo-17-pentafluoroethyl-2,3,6,7,8,11,12,13,14,15,16,17-dodecahydro-1H-cyclopenta[a]phenanthren-1′-yl)phenyl]prop-2-ynyl}urea] | 10.40 | 10.10 |

More lines, now with the values ahead:

| pIC50 [1] | pIC50 [2] | SMILES |
| --- | --- | --- |
| 10.00 | 10.00 | CC(C)NC(=O)NCC#Cc1ccc([C@H]2C[C@@]3(C)[C@@H](CC[C@@]3(O)C(F)(F)C(F)(F)F)[C@@H]3CCC4=CC(=O)CCC4=C32)cc1 [Example 29, 1-{3-[4-((8S,11R,13S,14S,17S)-17-hydroxy-13-methyl-3-oxo-17-pentafluoroethyl-2,3,6,7,8,11,12,13,14,15,16,17-dodecahydro-1H-cyclopenta[a]phenanthren-11-yl)phenyl]prop-2-ynyl}-3-isopropylurea] |
| 10.00 | 9.40 | CCOC(=O)CCNC(=O)NCC#Cc1ccc([C@H]2C[C@@]3(C)C(CC[C@@]3(O)C(F)(F)C(F)(F)F)C3CCC4=CC(=O)CCC4=C32)cc1 (stereo partly drawn) [Example 30, 3-(3-{3-[4-((8S,11R,13S,14S,17S)-17-hydroxy-13-methyl-3-oxo-17-pentafluoroethyl-2,3,6,7,8,11,12,13,14,15,16,17-dodecahydro-1H-cyclopenta[a]phenanthren-1′-yl)phenyl]prop-2-ynyl}ureido)propionic acid ethyl ester] |
| 9.70 | 10.00 | COc1ccc(NC(=O)NCC#Cc2ccc([C@H]3C[C@@]4(C)[C@@H](CC[C@@]4(O)C(F)(F)C(F)(F)F)[C@@H]4CCC5=CC(=O)CCC5=C43)cc2)cc1 [Example 32, 1-{3-[4-((8S,11R,13S,14S,17S)-17-hydroxy-13-methyl-3-oxo-17-pentafluoroethyl-2,3,6,7,8,11,12,13,14,15,16,17-dodecahydro-1H-cyclopenta[a]phenanthren-11-yl)phenyl]prop-2-ynyl}-3-(4-methoxyphenyl)urea] |
| 9.05 | 9.10 | CC(C)(C)c1ccc(NC(=O)NCC#Cc2ccc([C@H]3C[C@@]4(C)[C@@H](CC[C@@]4(O)C(F)(F)C(F)(F)F)[C@@H]4CCC5=CC(=O)CCC5=C43)cc2)cc1 [Example 33, 1-{3-[4-((8S,11R,13S,14S,17S)-17-hydroxy-13-methyl-3-oxo-17-pentafluoroethyl-2,3,6,7,8,11,12,13,14,15,16,17-dodecahydro-1H-cyclopenta[a]phenanthren-11-yl)phenyl]prop-2-ynyl}-3-(4-tert-butylphenyl)urea] |
| 9.40 | 9.40 | C[C@]12C[C@H](c3ccc(C#CCNC(=O)Nc4ccc(Cl)cc4)cc3)C3=C4CCC(=O)C=C4CC[C@H]3[C@@H]1CC[C@@]2(O)C(F)(F)C(F)(F)F [Example 35, 1-{3-[4-((8S,11R,13S,14S,17S)-17-hydroxy-13-methyl-3-oxo-17-pentafluoroethyl-2,3,6,7,8,11,12,13,14,15,16,17-dodecahydro-1H-cyclopenta[a]phenanthren-11-yl)phenyl]prop-2-ynyl}-3-(4-chlorophenyl)urea] |
| 10.00 | 9.40 | CCOC(=O)c1ccc(NC(=O)NCC#Cc2ccc([C@H]3C[C@@]4(C)C(CC[C@@]4(O)C(F)(F)C(F)(F)F)C4CCC5=CC(=O)CCC5=C43)cc2)cc1 (stereo partly drawn) [Example 37, 4-(3-{3-[4-((8S,11R,13S,14S,17S)-17-hydroxy-13-methyl-3-oxo-17-pentafluoroethyl-2,3,6,7,8,11,12,13,14,15,16,17-dodecahydro-1H-cyclopenta[a]phenanthren-1′-yl)phenyl]prop-2-ynyl}ureido)benzoic acid ethyl ester] |
